Earlier results in US7593820B2, “Crystal structure of human Janus Kinase 2 (JAK2) and uses thereof” (Cytopia Research Pty Ltd, priority 2005, dated 2009).

Test system: other PTKs that possess either a Thr or Val
Conditions: Thr or Val at gatekeeper position

CC(C)(C)c1nc2c3cc[nH]c(=O)c3c3cc(F)ccc3c2[nH]1 [Compound 6, 2-tert-Butyl-9-fluoro-3,6-dihydro-7H-benz[h]imidazo[4,5-f]isoquinolin-7-one]
IC50 for other PTKs that possess either a Thr or Val: uM range
